{"source": "patent US8124629B2", "about": "“Naphthylacetic acids” (Hoffmann-La Roche Inc., priority 2008, dated 2012)", "data": [{"biological_target": "T1, human CRTH2 (Homo sapiens, UniProt Q9Y5Y4)", "T1 sequence (Q9Y5Y4 1-395)": "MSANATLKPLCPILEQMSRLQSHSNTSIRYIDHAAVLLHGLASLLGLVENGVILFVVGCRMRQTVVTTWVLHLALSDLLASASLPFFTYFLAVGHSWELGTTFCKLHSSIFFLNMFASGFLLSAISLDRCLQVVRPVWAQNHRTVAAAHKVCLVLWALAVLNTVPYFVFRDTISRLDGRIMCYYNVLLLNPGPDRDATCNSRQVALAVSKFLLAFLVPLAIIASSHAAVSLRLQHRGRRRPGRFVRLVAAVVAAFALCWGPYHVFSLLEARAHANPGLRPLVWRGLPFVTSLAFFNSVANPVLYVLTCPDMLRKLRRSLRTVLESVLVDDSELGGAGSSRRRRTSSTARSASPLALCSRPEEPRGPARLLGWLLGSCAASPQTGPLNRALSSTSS", "assay": "Human CRTH2 Receptor Binding Assay (whole cell, [3H]ramatroban)", "design": "expressed in transfected cells; host or cells: CHO-K1", "conditions": "CHO-K1 cells expressing human CRTH2 and G-alpha16; 20 nM [3H]ramatroban; 1 hour, room temperature", "description": "A whole cell receptor binding assay using [^3H]ramatroban as the competing radioactive ligand was employed to evaluate the compound binding activity to human CRTH2. The radioactive ligand [^3H]ramatroban was synthesized according to Sugimoto et. al. (Eur. J. Pharmacol. 524, 30-37, 2005) to a specific activity of 42 Ci/mmol.\nA cell line stably expressing human CRTH2 was established by transfecting CHO-K1 cells with two mammalian expression vectors that harbored human CRTH2 and G-alpha16 cDNAs, respectively, using FuGene® 6 transfection reagent (from Roche). Stable clones expressing CRTH2 were selected by staining each clone with BM16 (BD Pharmingen™ from BD Biosciences, a division of Becton, Dickinson and Company), which is a rat monoclonal antibody to human CRTH2. The cells were maintained as monolayer cultures in Ham's F-12 medium containing 10% fetal bovine serum, 100 units/mL penicillin, 100 μg/mL streptomycin, 2 mM glutamine, 0.5 mg/mL G418 (geneticin) for CRTH2, and 0.2 mg/mL hygromycin-B (for G-alpha 16). For whole cell receptor binding assay, the monolayer cells were rinsed once with PBS (phosphate buffered saline), dissociated using ethylenediaminetetraacetate (Versene™ EDTA from Lonza Inc.), and suspended in PBS containing 10 mM MgCl2 and 0.06% BSA (bovine serum albumin) at 1.5×10^6 cells/mL.\nThe binding reactions (0.2 mL) were performed in 96-well plates at room temperature in PBS containing 1.5×10^5 cells, 10 mM MgCl2, 0.06% BSA, 20 nM [^3H]ramatroban, and test compound at various concentrations. After 1 hour of binding reactions, the cells were harvested on GF™/B filter microplates (microtiter plates with embedded glass fiber from Perkin Elmer, Inc.) and washed 5 times with PBS using a Filtermate™ Harvester (a cell harvester that harvests and washes cells from microplates from PerkinElmer, Inc.). The radioactivities bound to the cells were determined using a microplate scintillation counter (TopCount® NXT, from PerkinElmer, Inc.) after adding 50 μL of Microscint™ 20 scintillation fluid (from PerkinElmer, Inc.) to each well of the filter plates. The radioactivity from non-specific binding was determined by replacing compound with 10 μM of 15(R)-15-methyl PGD2 (from Cayman Chemical Company) in the reaction mixtures. The radioactivity bound to the cells in the absence of compound (total binding) was determined by replacing compound with 0.25% of DMSO (dimethyl sulfoxide) in the reaction mixture. Specific binding data were obtained by subtracting the radioactivity of non-specific binding from each binding data.\nThe IC50 value is defined as the concentration of the tested compound that is required for 50% inhibition of total specific binding. In order to calculate the IC50 value, the percent inhibition data were determined for 7 concentrations for each compound. The percent inhibition for a compound at each concentration was calculated according to the following formula, [1-(specific binding in the presence of compound)/(total specific binding)]×100. The IC50 value was then obtained by fitting the percent inhibition data to a sigmoidal dose-response (4 parameter logistic) model in the XLfit® software Excel add-in program [from ID Business Solutions Ltd., model 205, where F(x)=(A+(B−A)/(1+((C/×)^D)))].", "units": {"IC50": "nM"}, "values": [{"smiles": "CS(=O)(=O)c1ccc(C(=O)c2cc(CC(=O)O)cc3cc(F)ccc23)cc1", "note": "[Example 2-4, [7-Fluoro-4-(4-methanesulfonyl-benzoyl)-naphthalen-2-yl]-acetic acid]", "IC50": 40.6}, {"smiles": "CCS(=O)(=O)c1ccc(C(O)c2cc(CC(=O)O)cc3ccc(F)cc23)c(C)c1", "note": "(centres unmarked) [Example 16-8, {4-[(4-Ethanesulfonyl-2-methyl-phenyl)-hydroxy-methyl]-6-fluoro-naphthalen-2-yl}-acetic acid]", "IC50": 18.9}, {"smiles": "CS(=O)(=O)c1ccc(Cc2cc(CC(=O)O)cc3ccc(C(F)(F)F)cc23)cc1", "note": "[Example 8-2, [4-(4-Methanesulfonyl-benzyl)-6-trifluoromethyl-naphthalen-2-yl]-acetic acid]", "IC50": 15.3}, {"smiles": "Cc1cc(S(=O)(=O)N(C)C)ccc1C(=O)c1cc(CC(=O)O)cc2ccc(F)cc12", "note": "[Example 2-24, [4-(4-Dimethylsulfamoyl-2-methyl-benzoyl)-6-fluoro-naphthalen-2-yl]-acetic acid]", "IC50": 6.9}, {"smiles": "CS(=O)(=O)c1ccc(C(O)c2cc(CC(=O)O)cc3ccccc23)cc1", "note": "(centres unmarked) [Example 16-6, {4-[Hydroxy-(4-methanesulfonyl-phenyl)-methyl]-naphthalen-2-yl}-acetic acid]", "IC50": 35.2}, {"smiles": "Cc1c(CC(=O)O)cc2ccc(F)cc2c1Cc1ccc(C#N)cc1", "note": "[Example 10-5, [4-(4-Cyano-benzyl)-6-fluoro-3-methyl-naphthalen-2-yl]-acetic acid]", "IC50": 12.4}, {"smiles": "COC(=O)c1cccc(Cc2c(C)c(CC(=O)O)cc3ccc(F)cc23)c1", "note": "[Example 15-5, 3-(3-Carboxymethyl-7-fluoro-2-methyl-naphthalen-1-ylmethyl)-benzoic acid methyl ester]", "IC50": 27.6}, {"smiles": "Cc1ccc2cc(CC(=O)O)cc(Cc3ccc(S(C)(=O)=O)cc3)c2c1", "note": "[Example 8-1, [4-(4-Methanesulfonyl-benzyl)-6-methyl-naphthalen-2-yl]-acetic acid]", "IC50": 87.8}, {"smiles": "CCS(=O)(=O)c1ccc(C(=O)c2cc(CC(=O)O)cc3ccc(F)cc23)c(C)c1", "note": "[Example 2-20, [4-(4-Ethanesulfonyl-2-methyl-benzoyl)-6-fluoro-naphthalen-2-yl]-acetic acid]", "IC50": 17.9}, {"smiles": "CNS(=O)(=O)c1ccc(C(O)c2cc(CC(=O)O)cc3ccc(F)cc23)cc1", "note": "(centres unmarked) [Example 20-1, {6-Fluoro-4-[hydroxy-(4-methylsulfamoyl-phenyl)-methyl]-naphthalen-2-yl}-acetic acid]", "IC50": 22.1}, {"smiles": "CN(C)S(=O)(=O)c1ccc(Cc2cc(CC(=O)O)cc3ccc(F)cc23)cc1", "note": "[Example 8-8, [4-(4-Dimethylsulfamoyl-benzyl)-6-fluoro-naphthalen-2-yl]-acetic acid]", "IC50": 6}, {"smiles": "CC(C)(C)OC(=O)N1CCN(S(=O)(=O)c2ccc(C(=O)c3cc(CC(=O)O)cc4ccc(F)cc34)cc2)CC1", "note": "[Example 4-2]", "IC50": 26.7}, {"smiles": "CNS(=O)(=O)c1ccc(C(=O)c2cc(CC(=O)O)cc3ccc(F)cc23)c(C)c1", "note": "[Example 2-25, [6-Fluoro-4-(2-methyl-4-methylsulfamoyl-benzoyl)-naphthalen-2-yl]-acetic acid]", "IC50": 8.9}, {"smiles": "Cc1c(CC(=O)O)cc2ccc(Cl)cc2c1C(=O)c1ccc(S(C)(=O)=O)cc1", "note": "[Example 6-2, [6-Chloro-4-(4-methanesulfonyl-benzoyl)-3-methyl-naphthalen-2-yl]-acetic acid]", "IC50": 3.7}, {"smiles": "Cc1c(CC(=O)O)cc2ccc(F)cc2c1Cc1cccc(S(C)(=O)=O)c1", "note": "[Example 10-2, [6-Fluoro-4-(3-methanesulfonyl-benzyl)-3-methyl-naphthalen-2-yl]-acetic acid]", "IC50": 54}, {"smiles": "O=C(O)Cc1cc(C(=O)c2ccc(S(=O)(=O)c3cccc(Cl)c3)cc2)c2cc(F)ccc2c1", "note": "[Example 1-5, {4-[4-(3-Chloro-benzenesulfonyl)-benzoyl]-6-fluoro-naphthalen-2-yl}-acetic acid]", "IC50": 6.2}, {"smiles": "CCS(=O)(=O)c1ccc(Cc2cc(CC(=O)O)cc3ccc(F)cc23)cc1", "note": "[Example 8-9, [4-(4-Ethanesulfonyl-benzyl)-6-fluoro-naphthalen-2-yl]-acetic acid]", "IC50": 4.3}]}]}
